What follows are compounds tested on 293T-HRE-GFP-luc cells (assay: Cell-based reporter assay for IC50 determinations). Details: hypoxia 6 hrs (1% O2), luminescence, read-out: IC50 Classification.
Experimental: Cell-Based Reporter Assay for IC50 Determinations
293T-HRE-GFP-luc cells were routinely maintained in DMEM media (high glucose version with GlutaMAX and HEPES, Gibco, catalog #10564) supplemented with 10% fetal bovine serum and 2 μg/mL puromycin (Invitrogen, catalog #A11138-03) using a humidified incubator (normoxia conditions consisting of 37° C., 5% CO2 and ambient O2).
In preparation for the reporter assay, cells were harvested and resuspended in DMEM media (high glucose version with GlutaMAX and HEPES) supplemented with 10% fetal bovine serum. Cells were inoculated into 384-well white Culturplates (Perkin Elmer catalog #6007680) at a density of 12,000 cells/well in a volume of 30 μL. The microplates were incubated overnight (approximately 17-19 hours) at 37° C. with 5% CO2 and ambient O2. Stock solutions of the test compounds were prepared in DMSO (Sigma, Catalog #D2650) and serially diluted 1:3 using DMSO. Compounds were additionally diluted (1:50) with culturemedium and 10 μL were added per well to the Culturplate. Following a 30 min. incubation under normoxia conditions, the plates were incubated in hypoxia for 6 hrs. (37° C., 5% CO2 and 1% O2). Steadylite Plus (Perkin Elmer, catalog #6016751) was then added (40 μL/well), the plates were mixed on an orbital shaker at room temperature in the dark for 15 min., and luminescence was measured using an Envision plate reader (Perkin Elmer). IC50 values were calculated using a four-parameter logistic curve fit. Results are shown below in Table 2; ND indicates no data.

Structure (SMILES)	IC50 [nM]
Cc1nc(-c2nc(-c3ccc(OC(F)(F)F)cc3)no2)nn1Cc1ccc(S(N)(=O)=O)cc1 [Example 105, 4-((5-methyl-3-(3-(4-(trifluoromethoxy)phenyl)-1,2,4-oxadiazol-5-yl)-1H-1,2,4-triazol-1-yl)methyl)benzenesulfonamide]	100 to 1000
Cc1nc(-c2ccc(-c3ccccc3)o2)nn1Cc1ccnc(N2CCN(C)CC2)c1 [Example 3]	1000 to 10000
Cc1nc(-c2nc(-c3ccc(OC(F)(F)F)cc3)no2)nn1Cc1cccc(S(=O)(=O)NCC(C)(C)O)c1 [Example 138, 2-hydroxy-2-methyl-S-{3-[(5-methyl-3-{3-[4-(trifluoromethoxy)phenyl]-1,2,4-oxadiazol-5-yl}-1H-1,2,4-triazol-1-yl)methyl]phenyl}propane-1-sulfonamido]	< 100
Cc1nc(-c2nc(-c3ccc(OC(F)(F)F)cc3)no2)nn1Cc1cccc(C(=O)O)c1 [Example 119, 3-((5-methyl-3-(3-(4-(trifluoromethoxy)phenyl)-1,2,4-oxadiazol-5-yl)-1H-1,2,4-triazol-1-yl)methyl)benzoic acid]	100 to 1000
Cc1cccc(Cn2nc(-c3nc(-c4ccc(OC(F)(F)F)cc4)no3)nc2C)c1 [Example 100, 5-(5-methyl-1-(3-methylbenzyl)-1H-1,2,4-triazol-3-yl)-3-(4-(trifluoromethoxy)phenyl)-1,2,4-oxadiazole]	1000 to 10000
Cc1nc(-c2nc(-c3ccc(OC(F)(F)F)cc3)no2)nn1Cc1cccc(S(N)(=O)=O)c1 [Example 104, 3-((5-methyl-3-(3-(4-(trifluoromethoxy)phenyl)-1,2,4-oxadiazol-5-yl)-1H-1,2,4-triazol-1-yl)methyl)benzenesulfonamide]	100 to 1000
Cc1nc(-c2nc(-c3ccc(OC(F)(F)F)cc3)cs2)nn1Cc1cccc(OCCO)c1 [Example 91, 2-{3-[(5-Methyl-3-{4-[4-(trifluoromethoxy)phenyl]-1,3-thiazol-2-yl}-1H-1,2,4-triazol-1-yl)methyl]phenoxy}ethan-1-ol]	100 to 1000
Cc1nc(-c2nc(-c3ccc(OC(F)(F)F)cc3)no2)nn1Cc1cccc(OCCC(C)(C)O)c1 [Example 126, 2-methyl-4-{3-[(5-methyl-3-{3-[4-(trifluoromethoxy)phenyl]-1,2,4-oxadiazol-5-yl}-1H-1,2,4-triazol-1-yl)methyl]phenoxy}butan-2-ol]	< 100
Cc1nc(-c2nc(-c3ccc(OC(F)(F)F)cc3)no2)nn1Cc1cccc(N2CCCC2)c1 [Example 50, 5-(5-Methyl-1-(3-(pyrrolidin-1-yl)benzyl)-1H-1,2,4-triazol-3-yl)-3-(4-(trifluoromethoxy)phenyl)-1,2,4-oxadiazole]	100 to 1000
Cc1nc(-c2nc(-c3ccc(OC(F)(F)F)cc3)no2)nn1Cc1ccnc(OCC(C)C)c1 [Example 76b, 4-[(5-Methyl-3-{3-[4-(trifluoromethoxy)phenyl]-1,2,4-oxadiazol-5-yl}-1H-1,2,4-triazol-1-yl)methyl]-2-(2-methylpropoxy)pyridine]	100 to 1000
Cc1nc(-c2noc(-c3ccc(C(C)(C)C)cc3)n2)nn1Cc1cccc(N2CCN(C)CC2)c1 [Example 116, 5-(4-(tert-butyl)phenyl)-3-(5-methyl-1-(3-(4-methylpiperazin-1-yl)benzyl)-1H-1,2,4-triazol-3-yl)-1,2,4-oxadiazole]	< 100
CCOc1cccc(Cn2nc(-c3nc(-c4ccc(OC(F)(F)F)cc4)no3)nc2C)c1 [Example 64, 5-{1-[(3-Ethoxyphenyl)methyl]-5-methyl-1H-1,2,4-triazol-3-yl}-3-[4-(trifluoromethoxy)phenyl]-1,2,4-oxadiazole]	< 100
Cc1nc(-c2nc(-c3ccc(OC(F)(F)F)cc3)no2)nn1Cc1ccnc(OCCN(C)C)c1 [Example 143, dimethyl[2-({4-[(5-methyl-3-{3-[4-(trifluoromethoxy)phenyl]-1,2,4-oxadiazol-5-yl}-1H-1,2,4-triazol-1-yl)methyl]pyridin-2-yl}oxy)ethyl]amine]	100 to 1000
Cc1nc(-c2cc(-c3ccc(OC(F)(F)F)cc3)on2)nn1Cc1cccc(N2CCN(C)CC2)c1 [Example 162, 1-methyl-4-{3-[(5-methyl-3-{5-[4-(trifluoromethoxy)phenyl]-1,2-oxazol-3-yl}-1H-1,2,4-triazol-1-yl)methyl]phenyl}piperazine]	< 100
Cc1nc(-c2cc(-c3ccc(OC(F)(F)F)cc3)on2)nn1Cc1ccnc(N2CCN(C)CC2)c1 [Example 163, 1-methyl-4-{4-[(5-methyl-3-{5-[4-(trifluoromethoxy)phenyl]-1,2-oxazol-3-yl}-1H-1,2,4-triazol-1-yl)methyl]pyridin-2-yl}piperazine]	< 100
Cc1cc(Cn2nc(-c3nc(-c4ccc(OC(F)(F)F)cc4)no3)nc2C)n(C)n1 [Example 48, 5-(1-((1,3-Dimethyl-1H-pyrazol-5-yl)methyl)-5-methyl-1H-1,2,4-triazol-3-yl)-3-(4-(trifluoromethoxy)phenyl)-1,2,4-oxadiazole]	100 to 1000
Cc1nc(-c2nc(-c3ccccc3)no2)nn1Cc1ccnc(N2CCN(C)CC2)c1 [Example 29, 1-Methyl-4-(4-((5-methyl-3-(3-phenyl-1,2,4-oxadiazol-5-yl)-1H-1,2,4-triazol-1-yl)methyl)pyridin-1-ium-2-yl)piperazin-1-ium bis-trifluoroacetate]	1000 to 10000
Cc1nc(-c2nc(-c3ccc(OC(F)(F)F)cc3)no2)nn1Cc1cccc(S(=O)(=O)N2CCCC2)c1 [Example 133, 5-(5-methyl-1-{[3-(pyrrolidine-1-sulfonyl)phenyl]methyl}-1H-1,2,4-triazol-3-yl)-3-[4-(trifluoromethoxy)phenyl]-1,2,4-oxadiazole]	< 100
Cc1nc(-c2nc(-c3ccc(OC(F)(F)F)cc3)no2)nn1Cc1cccc(C(=O)N2CCN(C)CC2)c1 [Example 13, (3-((5-Methyl-3-(3-(4-(trifluoromethoxy)phenyl)-1,2,4-oxadiazol-5-yl)-1H-1,2,4-triazol-1-yl)methyl)phenyl)(4-methylpiperazin-1-yl)methanone]	< 100
COCCCNC(=O)c1ccc(Cn2nc(-c3nc(-c4ccc(OC(F)(F)F)cc4)no3)nc2C)cc1 [Example 41, N-(3-Methoxypropyl)-4-((5-methyl-3-(3-(4-(trifluoromethoxy)phenyl)-1,2,4-oxadiazol-5-yl)-1H-1,2,4-triazol-1-yl)methyl)benzamide]	100 to 1000
Cc1nc(-c2nc(-c3ccc(OC(F)(F)F)cc3)no2)nn1Cc1cccc(N2CCN(C(=O)CO)CC2)c1 [Example 83, 2-Hydroxy-1-(4-{3-[(5-methyl-3-{3-[4-(trifluoromethoxy)phenyl]-1,2,4-oxadiazol-5-yl}-1H-1,2,4-triazol-1-yl)methyl]phenyl}piperazin-1-yl)ethan-1-one]	< 100
Cc1ccc(Cn2nc(-c3ncc(-c4ccc(OC(F)(F)F)cc4)o3)nc2C)cc1 [Example 154, 5-methyl-1-[(4-methylphenyl)methyl]-3-{5-[4-(trifluoromethoxy)phenyl]-1,3-oxazol-2-yl}-1H-1,2,4-triazole]	100 to 1000
Cc1nc(-c2noc(-c3ccc(OC(F)(F)F)cc3)n2)nn1Cc1cccc(N(C)C)c1 [Example 58, N,N-Dimethyl-3-((5-methyl-3-(5-(4-(trifluoromethoxy)phenyl)-1,2,4-oxadiazol-3-yl)-1H-1,2,4-triazol-1-yl)methyl)aniline]	100 to 1000
Cc1nc(-c2cc(-c3ccc(OC(F)(F)F)cc3)on2)nn1Cc1cccc(N2CCC(S(C)(=O)=O)CC2)c1 [Example 96, 3-(5-Methyl-1-(3-(4-(methylsulfonyl)piperidin-1-yl)benzyl)-1H-1,2,4-triazol-3-yl)-5-(4-(trifluoromethoxy)phenyl)isoxazole]	< 100
Cc1nc(-c2nc(-c3ccc(OC(F)(F)F)cc3)no2)nn1Cc1cccc(N2CCNC(=O)C2)c1 [Example 145, 4-{3-[(5-methyl-3-{3-[4-(trifluoromethoxy)phenyl]-1,2,4-oxadiazol-5-yl}-1H-1,2,4-triazol-1-yl)methyl]phenyl]piperazin-2-one]	< 100
Cc1nc(-c2nc(-c3ccc(OC(F)(F)F)cc3)no2)nn1Cc1cn2ccccc2n1 [Example 16, 5-(1-(imidazo[1,2-a]pyridin-2-ylmethyl)-5-methyl-1H-1,2,4-triazol-3-yl)-3-(4-(trifluoromethoxy)phenyl)-1,2,4-oxadiazole]	100 to 1000
COC(=O)c1cccc(Cn2nc(-c3nc(-c4ccc(OC(F)(F)F)cc4)no3)nc2C)c1 [Example 12, Methyl 3-((5-methyl-3-(3-(4-(trifluoromethoxy)phenyl)-1,2,4-oxadiazol-5-yl)-1H-1,2,4-triazol-1-yl)methyl)benzoate]	< 100
Cc1nc(-c2nc(-c3ccc(OC(F)(F)F)cc3)no2)nn1Cc1cccc(OCCO)c1 [Example 65, 2-{3-[(5-Methyl-3-{3-[4-(trifluoromethoxy)phenyl]-1,2,4-oxadiazol-5-yl}-1H-1,2,4-triazol-1-yl)methyl]phenoxy}ethan-1-ol]	< 100
Cc1nc(-c2nc(-c3ccc(OC(F)(F)F)cc3)no2)nn1Cc1cccc(C(=O)NCCO)c1 [Example 39, N-(2-Hydroxyethyl)-3-((5-methyl-3-(3-(4-(trifluoromethoxy)phenyl)-1,2,4-oxadiazol-5-yl)-1H-1,2,4-triazol-1-yl)methyl)benzamide]	100 to 1000

Reference: patent US10208059B2, “Heterocyclic modulators of HIF activity for treatment of disease” (Board of Regents, University of Texas System, priority 2012, dated 2019)
